From US9738932B2, “Biomarkers for cardiovascular side-effects induced by cox-2 inhibitory compounds” (FIRALIS SAS, priority 2005, dated 2017)

Test system: mRNA expression in cardiovascular tissues
Assay: Affymetrix GeneChip mRNA expression profiling of monkey tissues (iliac vein, pulmonary vein, aorta, carotid artery, heart) after two-week oral-gavage treatment
[1] = iliac vein, group avg, Vioxx without A60055

Question: `CS(=O)(=O)c1ccc(C2=C(c3ccccc3)C(=O)OC2)cc1` [Vioxx®, rofecoxib] was tested. Which “HFE (211866_x_at) avg fold change vs control” value [1] did it give?
Answer: 1.0 fold

Question: And the “HHL (203020_at) avg fold change vs control” value [1]?
Answer: 1.1 fold

Question: And the “HLA-A (211528_x_at) avg fold change vs control” value [1]?
Answer: 1.3 fold

Question: What about the “HLA-A (211529_x_at) avg fold change vs control” value [1] of the same molecule?
Answer: 1.2 fold

Question: What about the “HLA-A (211530_x_at) avg fold change vs control” value [1] of the same molecule?
Answer: 1.8 fold

Question: What about the “HLA-A (215313_x_at) avg fold change vs control” value [1] of the same molecule?
Answer: 1.3 fold

Question: What about the “HLA-B (208729_x_at) avg fold change vs control” value [1] of the same molecule?
Answer: 1.2 fold

Question: What about the “HLA-B (209140_x_at) avg fold change vs control” value [1] of the same molecule?
Answer: 1.1 fold

Question: What about the “HLA-B (211911_x_at) avg fold change vs control” value [1] of the same molecule?
Answer: 1.4 fold

Question: And the “HLA-C (208812_x_at) avg fold change vs control” value [1]?
Answer: 1.3 fold

Question: And the “HLA-C (214459_x_at) avg fold change vs control” value [1]?
Answer: 1.4 fold

Question: And the “HLA-C (216526_x_at) avg fold change vs control” value [1]?
Answer: 1.3 fold

Question: And the “HLA-DMA (217478_s_at) avg fold change vs control” value [1]?
Answer: 1.1 fold

Question: What about the “HLA-DMB (203932_at) avg fold change vs control” value [1] of the same molecule?
Answer: 1.1 fold

Question: What about the “HLA-DQA1 (212671_s_at) avg fold change vs control” value [1] of the same molecule?
Answer: 1.0 fold

Question: And the “HLA-DQB1 (209823_x_at) avg fold change vs control” value [1]?
Answer: 0.9 fold

Question: And the “HLA-DQB1 (211654_x_at) avg fold change vs control” value [1]?
Answer: 1.0 fold

Question: And the “HLA-DQB1 (211656_x_at) avg fold change vs control” value [1]?
Answer: 1.0 fold

Question: And the “HLA-DQB2 (212998_x_at) avg fold change vs control” value [1]?
Answer: 1.2 fold

Question: What about the “HLA-DRA (208894_at) avg fold change vs control” value [1] of the same molecule?
Answer: 1.0 fold

Question: And the “HLA-DRA (210982_s_at) avg fold change vs control” value [1]?
Answer: 1.0 fold

Question: What about the “HLA-DRB1 (215193_x_at) avg fold change vs control” value [1] of the same molecule?
Answer: 1.2 fold

Question: What about the “HLA-DRB3 (209312_x_at) avg fold change vs control” value [1] of the same molecule?
Answer: 1.1 fold

Question: And the “HLA-DRB6 (217362_x_at) avg fold change vs control” value [1]?
Answer: 1.2 fold

Question: And the “HLA-E (200905_x_at) avg fold change vs control” value [1]?
Answer: 1.3 fold

Question: What about the “HLA-E (217456_x_at) avg fold change vs control” value [1] of the same molecule?
Answer: 1.2 fold

Question: What about the “HLA-F (204806_x_at) avg fold change vs control” value [1] of the same molecule?
Answer: 1.1 fold

Question: What about the “HLA-F (221875_x_at) avg fold change vs control” value [1] of the same molecule?
Answer: 1.2 fold

Question: What about the “ICAM1 (202638_s_at) avg fold change vs control” value [1] of the same molecule?
Answer: 0.8 fold

Question: And the “ICAM1 (215485_s_at) avg fold change vs control” value [1]?
Answer: 0.9 fold

Question: What about the “ICSBP1 (204057_at) avg fold change vs control” value [1] of the same molecule?
Answer: 1.4 fold

Question: And the “IFI27 (202411_at) avg fold change vs control” value [1]?
Answer: 3.8 fold

Question: What about the “IFI30 (201422_at) avg fold change vs control” value [1] of the same molecule?
Answer: 1.0 fold

Question: And the “IFI44 (214453_s_at) avg fold change vs control” value [1]?
Answer: 2.5 fold

Question: And the “IFIT1 (203153_at) avg fold change vs control” value [1]?
Answer: 1.5 fold

Question: What about the “IFIT2 (217502_at) avg fold change vs control” value [1] of the same molecule?
Answer: 1.3 fold

Question: What about the “IFIT4 (204747_at) avg fold change vs control” value [1] of the same molecule?
Answer: 0.9 fold

Question: And the “IFITM2 (201315_x_at) avg fold change vs control” value [1]?
Answer: 1.1 fold

Question: And the “IFITM3 (212203_x_at) avg fold change vs control” value [1]?
Answer: 1.4 fold

Question: And the “IGF1 (209541_at) avg fold change vs control” value [1]?
Answer: 0.9 fold

Question: What about the “IGFBP4 (201508_at) avg fold change vs control” value [1] of the same molecule?
Answer: 0.5 fold

Question: And the “IL1A (208200_at) avg fold change vs control” value [1]?
Answer: 1.1 fold

Question: And the “IL2RG (204116_at) avg fold change vs control” value [1]?
Answer: 1.4 fold

Question: What about the “IL27RA (205926_at) avg fold change vs control” value [1] of the same molecule?
Answer: 1.1 fold

Question: And the “INDO (210029_at) avg fold change vs control” value [1]?
Answer: 1.1 fold

Question: What about the “INPP5D (203332_s_at) avg fold change vs control” value [1] of the same molecule?
Answer: 1.2 fold

Question: And the “IRF1 (202531_at) avg fold change vs control” value [1]?
Answer: 0.8 fold

Question: And the “IRF7 (208436_s_at) avg fold change vs control” value [1]?
Answer: 1.6 fold

Question: What about the “ISGF3G (203882_at) avg fold change vs control” value [1] of the same molecule?
Answer: 1.7 fold

Question: And the “ITGB2 (202803_s_at) avg fold change vs control” value [1]?
Answer: 0.6 fold

Question: What about the “JAK1 (214377_s_at) avg fold change vs control” value [1] of the same molecule?
Answer: 1.3 fold

Question: What about the “KLKB1 (206541_at) avg fold change vs control” value [1] of the same molecule?
Answer: 1.2 fold

Question: What about the “LAIR1 (208071_s_at) avg fold change vs control” value [1] of the same molecule?
Answer: 0.5 fold

Question: What about the “LCK (204890_s_at) avg fold change vs control” value [1] of the same molecule?
Answer: 1.5 fold

Question: What about the “LCP2 (205270_s_at) avg fold change vs control” value [1] of the same molecule?
Answer: 0.9 fold

Question: What about the “LILRB1 (207857_at) avg fold change vs control” value [1] of the same molecule?
Answer: 0.5 fold

Question: What about the “LILRB1 (211100_x_at) avg fold change vs control” value [1] of the same molecule?
Answer: 1.3 fold

Question: And the “LILRB3 (208594_x_at) avg fold change vs control” value [1]?
Answer: 0.9 fold

Question: And the “LILRB3 (210225_x_at) avg fold change vs control” value [1]?
Answer: 0.8 fold

Question: What about the “LRMP (204674_at) avg fold change vs control” value [1] of the same molecule?
Answer: 1.7 fold

Question: What about the “LY86 (205859_at) avg fold change vs control” value [1] of the same molecule?
Answer: 1.5 fold

Question: And the “LY96 (206584_at) avg fold change vs control” value [1]?
Answer: 1.1 fold

Question: And the “LYN (210754_s_at) avg fold change vs control” value [1]?
Answer: 1.0 fold

Question: What about the “MAF (209348_s_at) avg fold change vs control” value [1] of the same molecule?
Answer: 1.0 fold

Question: And the “PCOLCE (202465_at) avg fold change vs control” value [1]?
Answer: 0.5 fold

Question: And the “PLA2G4C (209785_s_at) avg fold change vs control” value [1]?
Answer: 1.2 fold

Question: And the “PLCL2 (216217_at) avg fold change vs control” value [1]?
Answer: 1.0 fold

Question: And the “PLSCR1 (202446_s_at) avg fold change vs control” value [1]?
Answer: 1.2 fold

Question: And the “PRC1 (218009_s_at) avg fold change vs control” value [1]?
Answer: 0.7 fold

Question: What about the “PRG1 (201858_s_at) avg fold change vs control” value [1] of the same molecule?
Answer: 0.8 fold

Question: What about the “PRG1 (201859_at) avg fold change vs control” value [1] of the same molecule?
Answer: 0.8 fold

Question: And the “PTPN22 (206060_s_at) avg fold change vs control” value [1]?
Answer: 1.0 fold

Question: What about the “PTPRC (207238_s_at) avg fold change vs control” value [1] of the same molecule?
Answer: 1.3 fold

Question: And the “SOCS3 (206360_s_at) avg fold change vs control” value [1]?
Answer: 0.8 fold

Question: What about the “STAT1 (209969_s_at) avg fold change vs control” value [1] of the same molecule?
Answer: 1.7 fold

Question: And the “STAT1 (AFFX-HUMISGF3A/M97935_5_at) avg fold change vs control” value [1]?
Answer: 1.3 fold

Question: And the “STAT1 (AFFX-HUMISGF3A/M97935_MA_at) avg fold change vs control” value [1]?
Answer: 1.3 fold

Question: What about the “STAT1 (AFFX-HUMISGF3A/M97935_MB_at) avg fold change vs control” value [1] of the same molecule?
Answer: 1.5 fold

Question: What about the “TAPBP (208829_at) avg fold change vs control” value [1] of the same molecule?
Answer: 0.9 fold

Question: What about the “TCTEL1 (201999_s_at) avg fold change vs control” value [1] of the same molecule?
Answer: 0.9 fold

Question: What about the “TLR1 (210176_at) avg fold change vs control” value [1] of the same molecule?
Answer: 0.9 fold

Question: What about the “TLR2 (204924_at) avg fold change vs control” value [1] of the same molecule?
Answer: 0.9 fold

Question: And the “TNFAIP3 (202643_s_at) avg fold change vs control” value [1]?
Answer: 0.8 fold

Question: What about the “TNFAIP3 (202644_s_at) avg fold change vs control” value [1] of the same molecule?
Answer: 1.2 fold

Question: And the “TNFSF6 (210865_at) avg fold change vs control” value [1]?
Answer: 1.1 fold

Question: And the “TNFSF10 (202687_s_at) avg fold change vs control” value [1]?
Answer: 1.2 fold

Question: And the “TNFSF10 (202688_at) avg fold change vs control” value [1]?
Answer: 0.9 fold

Question: What about the “TRGC2 (211144_x_at) avg fold change vs control” value [1] of the same molecule?
Answer: 1.3 fold

Question: What about the “TRGC2 (216920_s_at) avg fold change vs control” value [1] of the same molecule?
Answer: 1.0 fold

Question: What about the “VCAM1 (203868_s_at) avg fold change vs control” value [1] of the same molecule?
Answer: 0.8 fold

Question: And the “XCL1 (206366_x_at) avg fold change vs control” value [1]?
Answer: 1.5 fold

Question: And the “XCL1 (214567_s_at) avg fold change vs control” value [1]?
Answer: 1.1 fold

Question: And the “XLKD1 (219059_s_at) avg fold change vs control” value [1]?
Answer: 1.0 fold

Question: What about the “cig5 (213797_at) avg fold change vs control” value [1] of the same molecule?
Answer: 1.4 fold

Question: And the “expression of CXCL10 and PD-ECGF” value (mainly in iliac and pulmonary veins, monkey #A60055)?
Answer: strongly induced

Question: What about the “increase of CXCL10 mRNA expression in pulmonary vein” value (monkey #A60055, 50 mg/kg/day oral gavage, two weeks, pulmonary vein) of the same molecule?
Answer: 20 fold

Question: And the “increase of MCP-1 mRNA expression in pulmonary vein” value (monkey A60055, 50 mg/kg/day oral gavage, two weeks, pulmonary vein)?
Answer: 150 fold

Question: What about the “expression of cPLA2” value (most of the cardiovascular tissues) of the same molecule?
Answer: upregulated

Question: And the “expression of Toll like receptor 2 and CD14” value (several tissues)?
Answer: significantly increased
